Experimental data taken from patent US20220281825A1 (priority 2016, published 2022).

Tests used:
in vitro = conditions: African green monkey
JUNV-p = assay: organism not typed; type: cell-based, Junin (JUNV); conditions: Vero, 24 h, read-out: JUNV-p EC50 (nM)
LASV-p = assay: organism not typed; type: cell-based, Lassa (LASV); conditions: Vero, 24 h, read-out: LASV-p EC50 (nM)
TCRV-p = assay: organism not typed; type: cell-based; conditions: Vero, 24 h, read-out: TCRV-p EC50 (nM)
MACV-p = assay: organism not typed; type: cell-based, Machupo (MACV); conditions: Vero, 24 h, read-out: MACV-p EC50 (nM)

Compound | CC50 (in vitro) [nM] | EC50 (JUNV-p) [nM] | EC50 (LASV-p) [nM] | EC50 (TCRV-p) [nM] | EC50 (MACV-p) [nM]
COc1ccc(-n2cnc3ccc(-c4ccc(CO)cc4)cc32)cc1 [Example A10, {4-[1-(4-methoxyphenyl)-1H-1,3-benzodiazol-6-yl]phenyl}methanol] | 4560 | > 25 | 21.8 | > 25 | > 25
COc1ccc(-n2cnc3ccc(-c4ccc(O)cc4)cc32)cc1 [Example A13, 4-[1-(4-methoxyphenyl)-1H-1,3-benzodiazol-6-yl]phenol] | 1270 | > 25 | 5 | > 25 | > 25
COc1ccc(-n2cnc3ccc(-c4ccc(C(C)=O)cc4)cc32)cc1 [Example A14, 1-{4-[1-(4-methoxyphenyl)-1H-1,3-benzodiazol-6-yl]phenyl}ethan-1-one] | 1950 | > 25 | 7.4 | > 25 | > 25
COc1ccc(-n2cnc3ccc(-c4ccc(N5CCCCC5)cc4)cc32)cc1 [Example A15, 1-(4-methoxyphenyl)-6-[4-(piperidin-1-yl)phenyl]-1H-1,3-benzodiazole] | 12900 | 2.23 | 14.7 | 29.6 | 24.9
CC(C)Oc1ccc(-n2cnc3ccc(-c4ccc(N5CCOCC5)cc4)cc32)cc1 [Example A21, 6-[4-(morpholin-4-yl)phenyl]-1-[4-(propan-2-yloxy)phenyl]-1H-1,3-benzodiazole] | 5220 | 3.5 | 3.07 | > 25 | 14.4
CC(C)Oc1ccc(-c2ccc3ncn(-c4ccc5[nH]ccc5c4)c3c2)cc1 [Example A27, 1-(1H-indol-5-yl)-6-[4-(propan-2-yloxy)phenyl]-1H-1,3-benzodiazole] | 3860 | 0.39 | 0.6 | 2.57 | 0.38
CC(C)Oc1ccc(-n2cnc3ccc(-c4ccc5[nH]ccc5c4)nc32)cc1 [Example B3, 5-{3-[4-(propan-2-yloxy)phenyl]-3H-imidazo[4,5-b]pyridin-5-yl}-1H-indole] | > 100000 | 1.79 | 1.01 | 27.7 | 10.3
CC(=O)c1ccc(-c2ccc3ncn(-c4ccc(OC(C)C)cc4)c3n2)cc1 [Example B4, 1-(4-{3-[4-(propan-2-yloxy)phenyl]-3H-imidazo[4,5-b]pyridin-5-yl}phenyl)ethan-1-one] | 19700 | 4.31 | 0.956 | 14.9 | 18.6
CC(C)Oc1ccc(-n2cnc3cnc(-c4ccc5[nH]ccc5c4)cc32)cc1 [Example B7, 5-{1-[4-(propan-2-yloxy)phenyl]-1H-imidazo[4,5-c]pyridin-6-yl}-1H-indole] | 13900 | 16.2 | 8.18 | > 25 | 24.1
CC(C)Oc1ccc(-n2cnc3cnc(-c4ccc(C(C)(C)O)cc4)nc32)cc1 [Example B9, 2-(4-{9-[4-(propan-2-yloxy)phenyl]-9H-purin-2-yl}phenyl)propan-2-ol] | 27700 | 11.9 | 19.7 | > 25 | 29.7
CC(C)Oc1ccc(-n2cnc3cnc(-c4ccc5[nH]ccc5c4)nc32)cc1 [Example B11, 2-(1H-indol-5-yl)-9-[4-(propan-2-yloxy)phenyl]-9H-purine] | 24200 | 25 | 6.4 | > 25 | 25
CC(=O)c1ccc(-c2ccc3nnn(-c4ccc(OC(C)C)cc4)c3c2)cc1 [Example B14, 1-(4-{1-[4-(propan-2-yloxy)phenyl]-1H-1,2,3-benzotriazol-6-yl}phenyl)ethan-1-one] | 7390 | 1.36 | 1.05 | > 25 | 15.4
CC(C)Oc1ccc(-c2cnc3ccc(-c4ccc(C(F)F)cc4)cn23)cc1 [Example C5, 6-[4-(difluoromethyl)phenyl]-3-[4-(propan-2-yloxy)phenyl]imidazo[1,2-a]pyridine] | 4690 | 9.09 | 4.1 | > 25 | 31.4
CC(C)Oc1ccc(-c2cnc3ccc(-c4ccc5[nH]ncc5c4)cn23)cc1 [Example C10, 5-{3-[4-(propan-2-yloxy)phenyl]imidazo[1,2-a]pyridin-6-yl}-1H-indazole] | > 100 | 19 | 4.61 | > 25 | 28.9
CC(C)Oc1ccc(-c2cnc3ccc(-c4ccc(C5(O)COC5)cc4)cn23)cc1 [Example C28, 3-(4-{3-[4-(propan-2-yloxy)phenyl]imidazo[1,2-a]pyridin-6-yl}phenyl)oxetan-3-ol] | > 100000 | 14.9 | 17.3 | > 25 | > 25
COCCOc1ccc(-c2cnc3ccc(-c4ccc(OC(C)C)cc4)cn23)cc1 [Example C42, 3-[4-(2-methoxyethoxy)phenyl]-6-[4-(propan-2-yloxy)phenyl]imidazo[1,2-a]pyridine] | 5360 | 2.6 | 3.08 | 11.7 | 23.1
CC(C)Oc1ccc(-c2ccc3ncc(-c4ccc(C5(O)CC5)cc4)n3c2)cc1 [Example C44, 1-(4-{6-[4-(propan-2-yloxy)phenyl]imidazo[1,2-a]pyridin-3-yl}phenyl)cyclopropan-1-ol] | > 100 | 0.07 | 0.23 | 0.135 | 0.32
CC(C)Oc1ccc(-n2ncc3ccc(-c4ccc5[nH]ccc5c4)cc32)cc1 [Example D2, 6-(1H-indol-5-yl)-1-[4-(propan-2-yloxy)phenyl]-1H-indazole] | 4340 | 17.8 | 7.99 | > 25 | 22.5
CC(=O)c1ccc(-c2ccc3cnn(-c4ccc(OC(C)C)cc4)c3c2)cc1 [Example D3, 1-(4-{1-[4-(propan-2-yloxy)phenyl]-1H-indazol-6-yl}phenyl)ethan-1-one] | 15900 | 20.2 | 7.04 | > 25 | 15.5
CC(C)Oc1ccc(-n2ccc3ccc(-c4ccc5[nH]ccc5c4)cc32)cc1 [Example D5, 6-(1H-indol-5-yl)-1-[4-(propan-2-yloxy)phenyl]-1H-indole] | 5.87 | 27.8 | 12.5 | > 25 | > 25
CC(C)Oc1ccc(-c2nnc3ccc(-c4ccc5[nH]ccc5c4)cn23)cc1 [Example D7, 5-{3-[4-(propan-2-yloxy)phenyl]-[1,2,4]triazolo[4,3-a]pyridin-6-yl}-1H-indole] | 1870 | 18 | 4.1 | 26.3 | > 25
CC(C)Oc1ccc(-c2cn3c(-c4ccc5[nH]ccc5c4)cnc3cn2)cc1 [Example D13, 5-{6-[4-(propan-2-yloxy)phenyl]imidazo[1,2-a]pyrazin-3-yl}-1H-indole] | > 100000 | 3.29 | 12.3 | 10.3 | 12
